Consider 3 compounds from patent US10808275B2, “Use of at least one chromogenic and/or fluorogenic phosphatase substrate for the detection and/or enumeration of enterobacteria in a sample” (BIOMERIEUX, priority 2013, dated 2020).

One assay relates to enterobacteria. Put plainly: Specificity of phosphatase substrates: growth and coloration of enterobacteria strains on chromogenic agar media. Conditions: for coloration: % of enterobacteria strains coloured; for coloration >= 1: % of enterobacteria strains positive (intensity >= 1 on 0-4 reading scale); for growth: enterobacteria strains grown / 31 tested. It is filed as cell-based. The method, then:
(§1) 38 bacterial strains, among which 31 enterobacteria and 7 non-enterobacteria, were tested on media containing various phosphatase substrates. Readings of the dishes were then taken at 24 h.
(§2) Then phosphatase substrates are added as follows: • Medium 1: addition of X-phosphate (X-P) at 60 mg/l • Medium 2: addition of Rose-phosphate (Rose-P) at 300 mg/L • Medium 3: addition of Magenta-phosphate (Magenta-P) at 300 mg/L • Medium 4: addition of Purple-phosphate (Purple-P) at 200 mg/L
(§3) The media are divided into Petri dishes.
(§4) Inoculation is performed from 24 h pre-cultures at 30° C. or 37° C., depending on the species, on Trypticase-soy medium.
(§5) Suspension in 0.5 McF physiological water is performed, and then the strains are inoculated with a 10 μl calibrated oese.
(§6) Readings are taken after 24 h and 48 h of incubation at 37° C.
(§7) Colonies with coloration intensities greater than or equal to 1 were considered positive, applying the reading scale below.
(§8) Reading scale of enzymatic activity/coloration • 0=no activity • 0.5=very pale coloration • 1=low-intensity distinct coloration • 2=medium-intensity obvious coloration • 3=intense coloration present, • 4=highly intense coloration present.

Assay [1] has as its system non-fermenting Gram-negative. Put plainly: Specificity of phosphatase substrates: growth and coloration of non-enterobacteria strains on chromogenic agar media. It counts as cell-based, non-fermenting Gram-negative bacteria. Conditions: for coloration >= 1: % positive non-fermenting Gram-negative strains; for growth: non-fermenting Gram-negative strains grown / 7 tested. The method, then:
as §1, §2, §3, §4, §5, §6, §7, §8

As for “5-bromo-6-chloro-3-indoxyl-phosphate [Magenta-P]”, the entries for the “sensitivity of the substrate compared with the other substrates” value with enterobacteria (24 h) and in the assay with enterobacteria (48 h) were “most sensitive” and “largely identical”, respectively. This compound had a coloration in the assay on enterobacteria (48 h at 37° C.) of 100%. Further, the “coloration >= 1” value with enterobacteria (24 h at 37° C.) turned out to be 90%; in assay [1] (24 h at 37° C.) it was 0%; in assay [1] (48 h at 37° C.), 0%. Also, the growth in the assay with enterobacteria (24 h at 37° C.) is on record as 30/31; with enterobacteria (48 h at 37° C.), 31/31; in assay [1] (24 h at 37° C.) it was 5/7; in assay [1] (48 h at 37° C.) it was 7/7.
In the case of `O=P(O)(O)Oc1c[nH]c2cc(Cl)ccc12` [Rose-P, 6-chloro-3-indoxyl-phosphate], the “sensitivity of the substrate compared with the other substrates” value with enterobacteria (24 h) and with enterobacteria (48 h) was “least sensitive” throughout. In the assay on enterobacteria (48 h at 37° C.), this compound gave a coloration of 94%. The results for the “coloration >= 1” value (in the assay with enterobacteria (24 h at 37° C.); in assay [1] (24 h at 37° C.); in assay [1] (48 h at 37° C.)) were 77%, 0% and 0%, respectively. Further, the growth in the assay with enterobacteria (24 h at 37° C.) is 30/31; with enterobacteria (48 h at 37° C.), 31/31; in assay [1] (24 h at 37° C.), 5/7; in assay [1] (48 h at 37° C.) it was 7/7.
For `O=P(O)(O)Oc1c[nH]c2ccc(Br)c(Cl)c12` [X-P, 5-bromo-4-chloro-3-indoxyl-phosphate], the “sensitivity of the substrate compared with the other substrates” value with enterobacteria (24 h) is “most sensitive”; in the assay with enterobacteria (48 h), “largely identical”. The compound further returned a coloration in the assay on enterobacteria (48 h at 37° C.) of 97%. Moreover, the “coloration >= 1” value in the assay on enterobacteria (24 h at 37° C.) is 90%; in assay [1] (24 h at 37° C.), 0%; in assay [1] (48 h at 37° C.), 0%. In addition, the growth in the assay with enterobacteria (24 h at 37° C.) is 30/31; in the assay with enterobacteria (48 h at 37° C.), 31/31; in assay [1] (24 h at 37° C.), 7/7; in assay [1] (48 h at 37° C.) it was 7/7.
